Each structure is given as a SMILES string.

Chain of DCN1 (Q96GG9 whole entry): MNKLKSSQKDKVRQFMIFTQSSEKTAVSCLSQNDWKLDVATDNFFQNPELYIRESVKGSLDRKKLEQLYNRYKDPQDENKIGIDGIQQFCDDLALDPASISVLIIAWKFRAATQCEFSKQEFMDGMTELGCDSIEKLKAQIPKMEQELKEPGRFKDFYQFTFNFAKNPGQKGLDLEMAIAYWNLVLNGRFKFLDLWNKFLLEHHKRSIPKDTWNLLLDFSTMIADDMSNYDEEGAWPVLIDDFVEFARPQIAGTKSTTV

For the assay, the target named is DCN1 (Homo sapiens (Human), UniProt Q96GG9). As to the kind of experiment: TR-FRET binding assay (biotin-DCN1 / Ac-UBE2M12-AlexaFluor488). Particulars: mean ± SD (n); read-out: DCN1_TRFRET Mean EC50. In a few lines:
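Biotinylated DCN1 binding to Ac-UBE2M12-AlexaFluor488 read by TR-FRET; assay cocktail pre-incubated 1 h at room temperature before compounds added from DMSO stocks by pin transfer. IC50 is the mean of three replicates ± SD; compounds tested in triplicate or more.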
A word on the EC50: it is the concentration needed to bring the measured effect to its halfway point. For the molecule `CCN1C(=O)[C@@H](NC(=O)c2cccc(C)c2)[C@@H](c2ccc(F)cc2)c2c(C)nn(C(C)C(F)(F)F)c21` (stereo partly drawn) [RG-0008879, N-[(4S,5S)-7-ethyl-4-(4-fluorophenyl)-3-methyl-6-oxo-1-(1,1,1-trifluoropropan-2-yl)-1H,4H,5H,6H,7H-pyrazolo[3,4-b]pyridin-5-yl]-3-methylbenzamide], the EC50 was 7260 ± 1090 nM.

Take `Cc1cccc(C(=O)N[C@@H]2C(=O)N(C)c3c(c(C)nn3-c3ccccc3)[C@@H]2c2ccc(F)cc2)c1` [RG-0005655, N-[(4S,5S)-4-(4-fluorophenyl)-3,7-dimethyl-6-oxo-1-phenyl-1H,4H,5H,6H,7H-pyrazolo[3,4-b]pyridin-5-yl]-3-methylbenzamide]: the EC50 was 446 ± 68.1 nM.

With `CC(=O)NCN1C(=O)[C@@H](NC(=O)c2cccc(C(F)(F)F)c2)[C@@H](c2ccc(F)cc2)c2c(C)nn(-c3ccccc3)c21` [RG-0013840, N-[(4S,5S)-7-(acetamidomethyl)-4-(4-fluorophenyl)-3-methyl-6-oxo-1-phenyl-1H,4H,5H,6H,7H-pyrazolo[3,4-b]pyridin-5-yl]-3-(trifluoromethyl)benzamide], the EC50 was over 36500 nM.

As for `CCN1C(=O)[C@@H](NC(=O)c2cccc(C)c2)[C@@H](c2ccc(F)cc2)c2c(C)nn(C3CCCCC3)c21` [RG-0008877, N-[(4S,5S)-1-cyclohexyl-7-ethyl-4-(4-fluorophenyl)-3-methyl-6-oxo-1H,4H,5H,6H,7H-pyrazolo[3,4-b]pyridin-5-yl]-3-methylbenzamide], the EC50 worked out at 835 ± 34.8 nM.

Consider `CCN1C(=O)[C@@H](NC(=O)c2cccc(C(F)(F)F)c2)[C@@H](c2cccs2)c2c(C)nn(-c3ccccc3)c21` [RG-0013988, N-[(4S,5S)-7-ethyl-3-methyl-6-oxo-1-phenyl-4-(thiophen-2-yl)-1H,4H,5H,6H,7H-pyrazolo[3,4-b]pyridin-5-yl]-3-(trifluoromethyl)benzamide], for which the EC50 was found to be 1330 ± 50.7 nM.

For the molecule `CCN1C(=O)[C@@H](NC(=O)c2cccc(C)c2)[C@@H](c2ccc(F)cc2)c2c(CO)nn(-c3ccccc3)c21` [RG-0008880, N-[(4S,5S)-7-ethyl-4-(4-fluorophenyl)-3-(hydroxymethyl)-6-oxo-1-phenyl-1H,4H,5H,6H,7H-pyrazolo[3,4-b]pyridin-5-yl]-3-methylbenzamide], the EC50 was found to be 173 ± 29.7 nM.

Consider `C=CCN1C(=O)[C@@H](NC(=O)c2cccc(C(F)(F)F)c2)[C@@H](c2ccc(F)cc2)c2c(C)nn(-c3ccccc3)c21` [RG-0014007, N-[(4S,5S)-4-(4-fluorophenyl)-3-methyl-6-oxo-1-phenyl-7-(prop-2-en-1-yl)-1H,4H,5H,6H,7H-pyrazolo[3,4-b]pyridin-5-yl]-3-(trifluoromethyl)benzamide], for which the 50% effective concentration (EC50) turned out to be 1550 ± 157 nM.

Regarding `CCN1C(=O)[C@@H](NC(=O)c2ccc(F)c(C)c2)[C@@H](c2ccc(F)cc2)c2c(C)nn(-c3ccccc3)c21` [RG-0014168, N-[(4S,5S)-7-ethyl-4-(4-fluorophenyl)-3-methyl-6-oxo-1-phenyl-1H,4H,5H,6H,7H-pyrazolo[3,4-b]pyridin-5-yl]-4-fluoro-3-methylbenzamide], the 50% effective concentration (EC50) worked out at 1690 ± 115 nM.

Turning to `CCN1C(=O)[C@@H](NC(=O)c2cccc(C(F)(F)F)c2)[C@@H](c2ccc(F)cc2)c2c(CNS(N)(=O)=O)nn(-c3ccccc3)c21` [RG-0014161, N-[(4S,5S)-7-ethyl-4-(4-fluorophenyl)-6-oxo-1-phenyl-3-[(sulfamoylamino)methyl]-1H,4H,5H,6H,7H-pyrazolo[3,4-b]pyridin-5-yl]-3-(trifluoromethyl)benzamide], the EC50 was determined as 145 ± 26.2 nM.

With `CCN1C(=O)[C@@H](NC(=O)c2cccc(C(C)C)c2)[C@@H](c2ccc(F)cc2)c2c(C)nn(-c3ccccc3)c21` [RG-0014166, N-[(4S,5S)-7-ethyl-4-(4-fluorophenyl)-3-methyl-6-oxo-1-phenyl-1H,4H,5H,6H,7H-pyrazolo[3,4-b]pyridin-5-yl]-3-(propan-2-yl)benzamide], the EC50 turned out to be 473 ± 70.7 nM.

Regarding `CCN1C(=O)[C@@H](NC(=O)c2cccc(C)c2)[C@@H](c2ccc(F)cc2)c2c(C)nn(C3CCCC3)c21` [RG-0008878, N-[(4S,5S)-1-cyclopentyl-7-ethyl-4-(4-fluorophenyl)-3-methyl-6-oxo-1H,4H,5H,6H,7H-pyrazolo[3,4-b]pyridin-5-yl]-3-methylbenzamide], the EC50 turned out to be 770 ± 76.1 nM.

With `CCN1C(=O)[C@@H](NC(=O)c2cccc(Br)c2)[C@@H](c2ccc(F)cc2)c2c(C)nn(-c3ccccc3)c21` [RG-0013061, 3-bromo-N-[(4S,5S)-7-ethyl-4-(4-fluorophenyl)-3-methyl-6-oxo-1-phenyl-1H,4H,5H,6H,7H-pyrazolo[3,4-b]pyridin-5-yl]benzamide], the EC50 turned out to be 485 ± 41.1 nM.

Regarding `CCN1C(=O)[C@@H](NC(=O)c2cccc(C(F)(F)F)c2)[C@@H](c2ccc(F)cc2)c2c(CNC(=O)CCOCCOCCNC(=O)CCCC[C@@H]3SC[C@@H]4NC(=O)N[C@@H]43)nn(-c3ccccc3)c21` [RG-0014159, N-[(4S,5S)-3-({3-[2-(2-{5-[(3aS,4S,6aR)-2-oxo-hexahydro-1H-thieno[3,4-d]imidazol-4-yl]pentanamido}ethoxy)ethoxy]propanamido}methyl)-7-ethyl-4-(4-fluorophenyl)-6-oxo-1-phenyl-1H,4H,5H,6H,7H-pyrazolo[3,4-b]pyridin-5-yl]-3-(trifluoromethyl)benzamide], the EC50 is 89.6 ± 10.9 nM.

`CCN1C(=O)[C@@H](NC(=O)c2cccc(I)c2)[C@@H](c2ccc(F)cc2)c2c(C)nn(-c3ccccc3)c21` [RG-0013060, N-[(4S,5S)-7-ethyl-4-(4-fluorophenyl)-3-methyl-6-oxo-1-phenyl-1H,4H,5H,6H,7H-pyrazolo[3,4-b]pyridin-5-yl]-3-iodobenzamide]: the EC50 turned out to be 461 ± 29.4 nM.

On to `CCOC(=O)Cn1nc(C)c2c1N(CC)C(=O)[C@@H](NC(=O)c1cccc(C(F)(F)F)c1)[C@H]2c1ccc(F)cc1` [RG-0014038, ethyl 2-[(4S,5S)-7-ethyl-4-(4-fluorophenyl)-3-methyl-6-oxo-5-[3-(trifluoromethyl)benzamido]-1H,4H,5H,6H,7H-pyrazolo[3,4-b]pyridin-1-yl]acetate], for which the 50% effective concentration (EC50) is 3530 ± 458 nM.

In the case of `CCN1C(=O)[C@@H](NC(=O)c2cccc(C)c2)[C@@H](c2ccc(F)nc2)c2c(C)nn(-c3ccccc3)c21` [RG-0009513, N-[(4S,5S)-7-ethyl-4-(6-fluoropyridin-3-yl)-3-methyl-6-oxo-1-phenyl-1H,4H,5H,6H,7H-pyrazolo[3,4-b]pyridin-5-yl]-3-methylbenzamide], the EC50 was found to be 255 ± 28.2 nM.

`CCN1C(=O)[C@@H](NC(=O)C(C)(C)C)[C@@H](c2ccc(F)cc2)c2c(C)nn(-c3ccccc3)c21` [RG-0014063, N-[(4S,5S)-7-ethyl-4-(4-fluorophenyl)-3-methyl-6-oxo-1-phenyl-1H,4H,5H,6H,7H-pyrazolo[3,4-b]pyridin-5-yl]-2,2-dimethylpropanamide]: the EC50 was over 36500 nM.

As for `CCN1C(=O)[C@@H](NC(=O)c2cccc(-c3ccccc3)c2)[C@@H](c2ccc(F)cc2)c2c(C)nn(-c3ccccc3)c21` [RG-0013978, N-[(4S,5S)-7-ethyl-4-(4-fluorophenyl)-3-methyl-6-oxo-1-phenyl-1H,4H,5H,6H,7H-pyrazolo[3,4-b]pyridin-5-yl]-[1,1′-biphenyl]-3-carboxamide], the EC50 is 1310 ± 97.3 nM.

Take `CCN1C(=O)[C@@H](NC(=O)c2cccc(C(F)(F)F)c2)[C@@H](c2ccc(F)cc2)c2c(CNS(=O)(=O)NC(=O)OC(C)(C)C)nn(-c3ccccc3)c21` [RG-0014160, tert-butyl N-({[(4S,5S)-7-ethyl-4-(4-fluorophenyl)-6-oxo-1-phenyl-5-[3-(trifluoromethyl)benzamido]-1H,4H,5H,6H,7H-pyrazolo[3,4-b]pyridin-3-yl]methyl}sulfamoyl)carbamate]: the EC50 stood at 194 ± 19.9 nM.

`CCN1C(=O)[C@@H](NC(=O)c2cccc(C)c2)[C@@H](c2ccc(F)cc2)c2c(C)nn(C(C)C)c21` [RG-0008860, N-[(4S,5S)-7-ethyl-4-(4-fluorophenyl)-3-methyl-6-oxo-1-(propan-2-yl)-1H,4H,5H,6H,7H-pyrazolo[3,4-b]pyridin-5-yl]-3-methylbenzamide]: the EC50 came to 467 ± 28 nM.

As for `CCN1C(=O)[C@@H](NC(=O)c2cccc(C(F)(F)F)c2)[C@@H](c2ccc(F)cc2)c2c(CN3CCNCC3)nn(-c3ccccc3)c21` [RG-0014141, N-[(4S,5S)-7-ethyl-4-(4-fluorophenyl)-6-oxo-1-phenyl-3-[(piperazin-1-yl)methyl]-1H,4H,5H,6H,7H-pyrazolo[3,4-b]pyridin-5-yl]-3-(trifluoromethyl)benzamide], the EC50 was found to be 141 ± 7.56 nM.

In the case of `Cc1cccc(C(=O)N[C@@H]2C(=O)N3CCCn4nc(C)c(c43)[C@@H]2c2ccc(F)cc2)c1` [RG-0008682, N-[(5S,6S)-5-(4-fluorophenyl)-3-methyl-7-oxo-1,2,8-triazatricyclo[6.3.1.0^4,^12]dodeca-2,4(12)-dien-6-yl]-3-methylbenzamide], the EC50 came to 12300 nM.

Regarding `Cc1nn(-c2ccccc2)c2c1[C@H](c1ccc(F)cc1)[C@H](NC(=O)c1cccc(C(F)(F)F)c1)C(=O)N2CCNC(=O)OC(C)(C)C` [RG-0014162, tert-butyl N-{2-[(4S,5S)-4-(4-fluorophenyl)-3-methyl-6-oxo-1-phenyl-5-[3-(trifluoromethyl)benzamido]-1H,4H,5H,6H,7H-pyrazolo[3,4-b]pyridin-7-yl]ethyl}carbamate], the EC50 was over 13600 nM.

On to `CCN1C(=O)[C@@H](NC(=O)c2cccc(C(F)(F)F)c2)[C@@H](c2ccc(F)cc2)c2c(CN3CCN(CC(F)(F)F)CC3)nn(-c3ccccc3)c21` [RG-0014150, N-[(4S,5S)-7-ethyl-4-(4-fluorophenyl)-6-oxo-1-phenyl-3-{[4-(2,2,2-trifluoroethyl)piperazin-1-yl]methyl}-1H,4H,5H,6H,7H-pyrazolo[3,4-b]pyridin-5-yl]-3-(trifluoromethyl)benzamide], for which the half-maximal effective concentration (EC50) was 173 ± 21.9 nM.

Consider `CCN1C(=O)[C@@H](NC(=O)c2cccc(C(F)(F)F)c2)[C@@H](c2ccc(F)cc2)c2c(CBr)nn(-c3ccccc3)c21` [RG-0014144, N-[(4S,5S)-3-(bromomethyl)-7-ethyl-4-(4-fluorophenyl)-6-oxo-1-phenyl-1H,4H,5H,6H,7H-pyrazolo[3,4-b]pyridin-5-yl]-3-(trifluoromethyl)benzamide], for which the EC50 was 186 ± 32.6 nM.
